Data as given in the RepoRT retention time repository (doi:10.1021/acs.analchem.1c00972).

Assay: RP, Waters ACQUITY UPLC BEH C18, 100 × 1 mm, 1.7 µm, 50 °C, 0.3 mL/min, estimated dead time 0.17 min; A: water + 10 mM ammonium bicarbonate; B: 10% water + 90% methanol + 10 mM ammonium bicarbonate; gradient (min/%B) 0/0 15/100 21/100 22/0 30/0
Conditions: stereoisomer not certain

Compound	LC retention time [min]
CC(C)C(=O)OCC(C)(C)C(OC(=O)C(C)C)C(C)C (centres undefined) [2,2,4-Trimethyl-1,3-pentanediol diisobutyrate]	17.4
CC1(C)CC(=O)CC(C)(C)N1 [2,2,6,6-Tetramethyl-4 piperidone]	7.87
CC1(C)CC(O)CC(C)(C)N1 [2,2,6,6-Tetramethylpiperidin-4-ol]	4.21
Cc1ccc(C)c(O)c1C [2,3,6-Trimethylphenol]	13.3
CC(Oc1c(Cl)cc(Cl)cc1Cl)C(=O)O (centres undefined) [2,4,6-Fenoprop]	2
Oc1ccc(Cl)cc1Cl [2,4-Dichlorophenol]	12.3
Cc1ccc(NC=O)c(C)c1 [2,4-Dimethylformanilide]	11.2
Cc1cc(C(C)(C)C)c(O)c(C(C)(C)C)c1 [2,6-Di-tert.-butyl-4-methylphenol]	18.1
Cc1cccc(C)c1O [2,6-Dimethylphenol]	12
OCCc1ccccn1 [2-(2-Pyridyl)ethanol]	6.8
Nc1ccccc1Cl [2-Chloroaniline]	10.6
O=C(O)C=Cc1ccccc1O [2-Hydroxycinnamic acid]	5
CCCCCSCCOCCOCCOCCO [3,6,9-Trioxa-12-thia-heptadecanol]	14.6
NC12CC3CC(C1)CC(O)(C3)C2 [3-Amino-1-adamantanol]	10.4
Nc1cccc(Cl)c1 [3-Chloroaniline]	10.6
O=C(O)c1cccc(Oc2ccccc2)c1 [3-Phenoxybenzoic acid]	11.2
Cc1cc(Cl)ccc1N [4-Chloro-2-methylaniline]	12.3
Nc1ccc(Cl)cc1 [4-Chloroaniline]	10.6
COc1ccc(S(=O)(=O)O)cc1 [4-Methoxybenzenesulfonic acid]	4.27
COc1cc([N+](=O)[O-])ccc1O [4-Nitroguaiacol]	4.61
Nc1[nH]c(=O)ncc1F [5-Fluorocytosine]	5.99
C#CC1(O)CCC2C3CCc4cc(O)ccc4C3CCC21C (stereo not drawn) [17-alpha-Ethinylestradiol]	14.3
CC(=O)Nc1ccc(O)cc1 [Acetaminophen]	5.35
CNC(=O)ON=CC(C)(C)S(C)(=O)=O [Aldicarb Sulfone]	9.41

Compound	LC retention time [min]
NC12CC3CC(CC(C3)C1)C2 [Amantadine]	10.5
CNC(=O)Oc1ccc(N(C)C)c(C)c1 [Aminocarb]	12.1
CN(C)CCC=C1c2ccccc2CCc2ccccc21 [Amitriptyline]	17.4
Nc1ccccc1C(=O)O [Anthranilic acid]	2.1
CCNc1nc(NC(C)C)nc(OC)n1 [Atraton]	12.4
CCNc1nc(Cl)nc(NC(C)C)n1 [Atrazine]	13.1
CCOc1nc2cccc(C(=O)O)c2n1Cc1ccc(-c2ccccc2-c2noc(=O)[nH]2)cc1 [Azilsartan]	9.52
COC(=O)C(C)N(C(=O)Cc1ccccc1)c1c(C)cccc1C (centres undefined) [Benalaxyl]	16
CNC(=O)Oc1cccc2c1OC(C)(C)O2 [Bendiocarb]	11.9
NS(=O)(=O)c1ccccc1 [Benzenesulfonamide]	12.8
O=C(OCc1ccccc1)c1ccccc1 [Benzoic acid benzyl ester]	16.3
c1ccc2scnc2c1 [Benzothiazol]	11.1
CCON=C(OC(=O)c1ccccc1)c1c(OC)ccc(Cl)c1OC [Benzoximate]	16.3
C=C(c1ccc(C(=O)O)cc1)c1cc2c(cc1C)C(C)(C)CCC2(C)C [Bexarotene]	17
Oc1ccc(C(c2ccccc2)(c2ccccc2)c2ccc(O)cc2)cc1 [Bisphenol BP]	15.9
CCC(C)(c1ccc(O)cc1)c1ccc(O)cc1 [Bisphenol B]	14.3
Cc1cc(C(C)(C)c2ccc(O)c(C)c2)ccc1O [Bisphenol C]	13.9
CC(C)(c1ccc(O)c(-c2ccccc2)c1)c1ccc(O)c(-c2ccccc2)c1 [Bisphenol PH]	17.1
CNC(=O)ON=C(C)C(C)S(C)(=O)=O (centres undefined) [Butoxycarboxim]	9.41
CCCCOC(=O)C=Cc1ccccc1 [Butyl cinnamate]	14
Cn1c(=O)c2c(ncn2C)n(C)c1=O [Caffeine]	7.78
NC(=O)N1c2ccccc2C=Cc2ccccc21 [Carbamazepin]	12.6
CCCC(C)(COC(N)=O)COC(=O)NC(C)C (centres undefined) [Carisoprodol]	13.3
CC(N)C(O)c1ccccc1 (centres undefined) [Cathine]	8.36

Compound	LC retention time [min]
CC1=C(C(=O)O)N2C(=O)C(NC(=O)C(N)c3ccccc3)C2SC1 (centres undefined) [Cefalexin]	7.52
C=CC1=C(C(=O)O)N2C(=O)C(NC(=O)C(=NOCC(=O)O)c3csc(N)n3)C2SC1 (centres undefined) [Cefixim]	5.67
CCN1CCN(C(=O)NC(C(=O)NC2C(=O)N3C(C(=O)O)=C(CSc4nnnn4C)CSC23)c2ccc(O)cc2)C(=O)C1=O (centres undefined) [Cefoperazone]	8.34
c1ccc2ncccc2c1 [Chinolin]	11.4
NS(=O)(=O)c1cc(C2(O)NC(=O)c3ccccc32)ccc1Cl (centres undefined) [Chlorthalidon]	9.67
CN(C)CCCC1(c2ccc(F)cc2)OCc2cc(C#N)ccc21 (centres undefined) [Citalopram]	14.8
CC1(C)CON(Cc2ccccc2Cl)C1=O [Clomazone]	13.9
CCOP(=S)(OCC)Oc1ccc2c(C)c(Cl)c(=O)oc2c1 [Coumaphos]	15.9
CCN(CC)C(=O)c1cccc(C)c1 [DEET]	13.4
CC(C)Nc1nc(N)nc(Cl)n1 [Desethylatrazine]	9.95
CCC(C)Nc1nc(N)nc(Cl)n1 (centres undefined) [Desethylsebutylazin]	11.5
CCNc1nc(N)nc(Cl)n1 [Desisopropylatrazine]	8.17
CC(=O)OCC12CCC(C)=CC1OC1C(O)C(OC(C)=O)C2(C)C12CO2 (centres undefined) [Diacetoxyscirpenol]	12.1
CN1C(=O)CN=C(c2ccccc2)c2cc(Cl)ccc21 [Diazepam]	14.6
COP(=O)(OC)OC(C)=CC(=O)N(C)C [Dicrotophos]	8.69
COCC(C)N(C(=O)CCl)c1c(C)csc1C (centres undefined) [Dimethenamid]	14.4
CC(C)(C)C(O)C(=Cc1ccc(Cl)cc1Cl)n1cncn1 (centres undefined) [Diniconazole]	16.5
CC=C1N(C)C(C)CC1(c1ccccc1)c1ccccc1 (centres undefined) [EDDP]	17.4
CNC(C)C(O)c1ccccc1 (centres undefined) [Ephedrine]	13.1
CNCC(O)c1ccc(O)c(O)c1 (centres undefined) [Epinephrine]	13.9
CC12CCC3c4ccc(O)cc4CCC3C1CC(O)C2O (centres undefined) [Estriol]	11.4
CC12CCC3c4ccc(O)cc4CCC3C1CCC2=O (centres undefined) [Estrone]	14.2
CCC(CO)NCCNC(CC)CO (centres undefined) [Ethambutol]	8.12
CCOP(=S)(OCC)SCSP(=S)(OCC)OCC [Ethion]	17.3

Compound	LC retention time [min]
CCOP(=S)(OCC)SCn1nnc2ccccc2c1=O [Ethyl azinphos]	15
c1ccc(OCCOc2ccccc2)cc1 [Ethylene glycol diphenylether]	13.5
CC1(c2ccc(Oc3ccccc3)cc2)OC(=O)N(Nc2ccccc2)C1=O (centres undefined) [Famoxadone]	16.1
N#CC(CCc1ccc(Cl)cc1)(Cn1cncn1)c1ccccc1 (centres undefined) [Fenbuconazole]	15.5
CCC(C)c1ccccc1OC(=O)NC (centres undefined) [Fenobucarb]	15
N#Cc1c[nH]cc1-c1cccc2c1OC(F)(F)O2 [Fludioxonil]	14.4
O=S(=O)(O)c1ccccc1C=Cc1ccc(-c2ccc(C=Cc3ccccc3S(=O)(=O)O)cc2)cc1 [Fluorescent brightener 351]	13.5
COC(=O)c1ccc(C(F)(F)F)nc1S(=O)(=O)NC(=O)Nc1nc(OC)cc(OC)n1 [Flupyrsulfuron-methyl]	10.4
CC1COCc2cc3c(cc21)C(C)(C)C(C)C3(C)C (centres undefined) [Galaxolide]	18.2
Nc1ccn(C2OC(CO)C(O)C2(F)F)c(=O)n1 (centres undefined) [Gemcitabine]	3.38
CC1C(c2ccc(Cl)cc2)SC(=O)N1C(=O)NC1CCCCC1 (centres undefined) [Hexythiazox]	17.6
COc1ccc2c3c1OC1C(=O)CCC4C(C2)N(C)CCC314 (centres undefined) [Hydrocodone]	12.1
NC1=NCCN1Cc1ccc(Cl)nc1 [Imidacloprid-guanidine]	6.72
O=C1NCCN1Cc1ccc(Cl)nc1 [Imidacloprid-urea]	8.68
CC(=O)N(CC(O)CO)c1c(I)c(C(=O)NCC(O)CO)c(I)c(C(=O)NCC(O)CO)c1I (centres undefined) [Iohexol]	5.51
CSc1nc(N)nc(NC(C)(C)C)n1 [Irgarol-Metabolit 1 (Terbutryn-desethyl)]	13.4
CSc1nc(NC2CC2)nc(NC(C)(C)C)n1 [Irgarol]	15.4
C[N+](C)(C)C[C@H](O)CC(=O)[O-] [L-Carnitin]	9.28
O=c1[nH]c2c(c(=O)n1C1CCCCC1)CCC2 [Lenacil]	13.1
CCN(CC)CC(=O)Nc1c(C)cccc1C [Lidocaine]	14.9
CCCCCC=CCC=CCCCCCCCC(=O)O [Linoleic acid]	17.6
CC#Cc1cc(C)nc(Nc2ccccc2)n1 [Mepanipyrim]	15
